Source: patent publication US20260262643A1, “HERBICIDAL BENZOXAZINES” (FMC CORPORATION, priority 2022, published 2026)

How the values were obtained:
corn [1] = experiment: Test C preemergence; type: in vivo, Zea mays; details: for Corn plant response rating: preemergence, 0 to 100 scale (0 no effect, 100 complete control)
In short: (§1)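 Soil-applied (pre) and foliar (post, 1–2 leaf, 2–10 cm) sprays; surfactant-containing non-phytotoxic solvent vehicle; loam/sand substrate. Readout: visual % control at 10 d, greenhouse, versus untreated.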

oat, wild = experiment: Test C postemergence; type: in vivo, Avena fatua; details: 10 days
In short: as §1

green foxtail [2] = experiment: Test C preemergence; type: in vivo, Setaria viridis; details: for Foxtail, Green plant response rating: preemergence, 0 to 100 scale (0 no effect, 100 complete control)
In short: as §1

ducksalad = experiment: Test D flooded paddy test; type: in vivo, Heteranthera limosa; details: 250 g ai/ha, applied to paddy water, visual rating after 13 to 14 days, scale 0 to 100 (0 no effect, 100 complete control)
In short: (§2)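 Seedlings reached the 2-leaf stage, then pots were flooded to 3 cm over the soil surface. Compound was applied into the water, depth was maintained, and plants stayed in the greenhouse 13 to 14 days before visual scoring (0–100) relative to controls.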

corn [3] = experiment: Test C postemergence; type: in vivo, Zea mays; details: 10 days
In short: as §1

pigweed, palmer [4] = experiment: Test C preemergence; type: in vivo, Amaranthus palmeri; details: for Pigweed, Palmer plant response rating: preemergence, 0 to 100 scale (0 no effect, 100 complete control)
In short: as §1

ryegrass, Italian [5] = experiment: Test C preemergence; type: in vivo, Lolium multiflorum; details: for Ryegrass, Italian plant response rating: preemergence, 0 to 100 scale (0 no effect, 100 complete control)
In short: as §1

barnyardgrass [6] = experiment: Test D flooded paddy test; type: in vivo, Echinochloa crus-galli; details: 250 g ai/ha, applied to paddy water, visual rating after 13 to 14 days, scale 0 to 100 (0 no effect, 100 complete control)
In short: as §2

soybean [7] = experiment: Test C preemergence; type: in vivo, Glycine max; details: for Soybean plant response rating: preemergence, 0 to 100 scale (0 no effect, 100 complete control)
In short: as §1

ragweed [8] = experiment: Test C postemergence; type: in vivo, Ambrosia artemisiifolia; details: 10 days
In short: as §1

sedge, umbrella = experiment: Test D flooded paddy test; type: in vivo, Cyperus difformis; details: 250 g ai/ha, applied to paddy water, visual rating after 13 to 14 days, scale 0 to 100 (0 no effect, 100 complete control)
In short: as §2

kochia [9] = experiment: Test C preemergence; type: in vivo, Bassia scoparia; details: for Kochia plant response rating: preemergence, 0 to 100 scale (0 no effect, 100 complete control)
In short: as §1

green foxtail [10] = experiment: Test C postemergence; type: in vivo, Setaria viridis; details: 10 days
In short: as §1

rice = experiment: Test D flooded paddy test; type: in vivo, Oryza sativa; details: 250 g ai/ha, applied to paddy water, visual rating after 13 to 14 days, scale 0 to 100 (0 no effect, 100 complete control)
In short: as §2

blackgrass [11] = experiment: Test C preemergence; type: in vivo, Alopecurus myosuroides; details: for Blackgrass plant response rating: preemergence, 0 to 100 scale (0 no effect, 100 complete control)
In short: as §1

kochia [12] = experiment: Test C postemergence; type: in vivo, Bassia scoparia; details: 10 days
In short: as §1

pigweed, palmer [13] = experiment: Test C postemergence; type: in vivo, Amaranthus palmeri; details: 10 days
In short: as §1

barnyardgrass [14] = experiment: Test C postemergence; type: in vivo, Echinochloa crusgalli; details: 10 days
In short: as §1

ryegrass, Italian [15] = experiment: Test C postemergence; type: in vivo, Lolium multiflorum; details: 10 days
In short: as §1

blackgrass [16] = experiment: Test C postemergence; type: in vivo, Alopecurus myosuroides; details: 10 days
In short: as §1

ragweed [17] = experiment: Test C preemergence; type: in vivo, Ambrosia artemisiifolia; details: for Ragweed plant response rating: preemergence, 0 to 100 scale (0 no effect, 100 complete control)
In short: as §1

wheat [18] = experiment: Test C preemergence; type: in vivo, Triticum aestivum; details: for Wheat plant response rating: preemergence, 0 to 100 scale (0 no effect, 100 complete control)
In short: as §1

wheat [19] = experiment: Test C postemergence; type: in vivo, Triticum aestivum; details: 10 days
In short: as §1

galium = experiment: Test C postemergence; type: in vivo, Galium aparine; details: 10 days
In short: as §1

horseweed = experiment: Test C postemergence; type: in vivo, Erigeron canadensis; details: 10 days
In short: as §1

soybean [20] = experiment: Test C postemergence; type: in vivo, Glycine max; details: 10 days
In short: as §1

barnyardgrass [21] = experiment: Test C preemergence; type: in vivo, Echinochloa crusgalli; details: for Barnyardgrass plant response rating: preemergence, 0 to 100 scale (0 no effect, 100 complete control)
In short: as §1

[22] = 125 g ai/ha, postemergence, 0 to 100 scale, 0 no effect, 100 complete control
[23] = 500 g ai/ha, postemergence, 0 to 100 scale (0 no effect, 100 complete control)
[24] = Preemergence, 125 g ai/ha, 0 to 100 scale, 0 no effect, 100 complete control
[25] = Postemergence, 125 g ai/ha, 0 to 100 scale (0 no effect, 100 complete control)

## CCOCc1ncn(-c2ccc(C)c(C(=O)N3C[C@H](C)Oc4c(Cl)cccc43)c2)n1 [Compound 294]
Corn [1]; 500 g ai/ha
  Corn plant response rating: 50
Corn [1]; Test C, 125 g ai/ha
  Corn plant response rating: 50
oat, wild; [22]
  Plant response rating, Oat, Wild: 10
oat, wild; [23]
  Plant response rating, Oat, Wild: 10
Green foxtail [2]; 500 g ai/ha
  Foxtail, Green plant response rating: 100
Green foxtail [2]; Test C, 125 g ai/ha
  Foxtail, Green plant response rating: 90
ducksalad
  Plant response rating, Ducksalad (Flood): 0
Corn [3]; [22]
  Plant response rating, Corn: 30
Corn [3]; [23]
  Plant response rating, Corn: 90
pigweed, palmer [4]; 500 g ai/ha
  Pigweed, Palmer plant response rating: 90
pigweed, palmer [4]; Test C, 125 g ai/ha
  Pigweed, Palmer plant response rating: 60
ryegrass, Italian [5]; 500 g ai/ha
  Ryegrass, Italian plant response rating: 100
ryegrass, Italian [5]; Test C, 125 g ai/ha
  Ryegrass, Italian plant response rating: 90
Barnyardgrass [6]
  Plant response rating, Barnyardgrass (Flood): 0
Soybean [7]; 500 g ai/ha
  Soybean plant response rating: 90
Soybean [7]; Test C, 125 g ai/ha
  Soybean plant response rating: 20
Ragweed [8]; [22]
  Plant response rating, Ragweed: 50
Ragweed [8]; [23]
  Plant response rating, Ragweed: 70
sedge, umbrella
  Plant response rating, Sedge, Umbrella (Flood): 0
Kochia [9]; 500 g ai/ha
  Kochia plant response rating: 80
Kochia [9]; Test C, 125 g ai/ha
  Kochia plant response rating: 20
Green foxtail [10]; [22]
  Plant response rating, Foxtail, Green: 10
Green foxtail [10]; [23]
  Plant response rating, Foxtail, Green: 70
rice
  Plant response rating, Rice (Flood): 0
Blackgrass [11]; 500 g ai/ha
  Blackgrass plant response rating: 90
Blackgrass [11]; Test C, 125 g ai/ha
  Blackgrass plant response rating: 70
Kochia [12]; [22]
  Plant response rating, Kochia: 60
Kochia [12]; [23]
  Plant response rating, Kochia: 60
pigweed, palmer [13]; [22]
  Plant response rating, Pigweed, Palmer: 40
pigweed, palmer [13]; [23]
  Plant response rating, Pigweed, Palmer: 60
Barnyardgrass [14]; [22]
  Plant response rating, Barnyardgrass: 10
Barnyardgrass [14]; [23]
  Plant response rating, Barnyardgrass: 50
ryegrass, Italian [15]; [22]
  Plant response rating, Ryegrass, Italian: 40
ryegrass, Italian [15]; [23]
  Plant response rating, Ryegrass, Italian: 90
Blackgrass [16]; [22]
  Plant response rating, Blackgrass: 30
Blackgrass [16]; [23]
  Plant response rating, Blackgrass: 80
Ragweed [17]; 500 g ai/ha
  Ragweed plant response rating: 0
Ragweed [17]; Test C, 125 g ai/ha
  Ragweed plant response rating: 0
Wheat [18]; 500 g ai/ha
  Wheat plant response rating: 20
Wheat [18]; Test C, 125 g ai/ha
  Wheat plant response rating: 0
Wheat [19]; [22]
  Plant response rating, Wheat: 10
Wheat [19]; [23]
  Plant response rating, Wheat: 40
galium; [22]
  Plant response rating, Galium: 100
galium; [23]
  Plant response rating, Galium: 90
horseweed; [22]
  Plant response rating, Horseweed: 30
horseweed; [23]
  Plant response rating, Horseweed: 70
Soybean [20]; [22]
  Plant response rating, Soybean: 90
Soybean [20]; [23]
  Plant response rating, Soybean: 100
Barnyardgrass [21]; 500 g ai/ha
  Barnyardgrass plant response rating: 100
Barnyardgrass [21]; Test C, 125 g ai/ha
  Barnyardgrass plant response rating: 40

## C[C@H]1CN(C(=O)c2cccc(-n3cnc(OS(C)(=O)=O)n3)c2)c2cccc(Cl)c2O1 [Compound 356]
Corn [1]; 500 g ai/ha
  Corn plant response rating: 10
Corn [1]; [24]
  Plant response rating, Corn: 0
oat, wild; [23]
  Plant response rating, Oat, Wild: 20
oat, wild; [25]
  Plant response rating, Oat, Wild: 10
Green foxtail [2]; 500 g ai/ha
  Foxtail, Green plant response rating: 90
Green foxtail [2]; [24]
  Plant response rating, Foxtail, Green: 30
ducksalad
  Plant response rating, Ducksalad (Flood): 0
Corn [3]; [23]
  Plant response rating, Corn: 20
Corn [3]; [25]
  Plant response rating, Corn: 10
pigweed, palmer [4]; 500 g ai/ha
  Pigweed, Palmer plant response rating: 100
pigweed, palmer [4]; [24]
  Plant response rating, Pigweed, Palmer: 40
ryegrass, Italian [5]; 500 g ai/ha
  Ryegrass, Italian plant response rating: 80
ryegrass, Italian [5]; [24]
  Plant response rating, Ryegrass, Italian: 70
Barnyardgrass [6]
  Plant response rating, Barnyardgrass (Flood): 0
Soybean [7]; 500 g ai/ha
  Soybean plant response rating: 0
Soybean [7]; [24]
  Plant response rating, Soybean: 0
Ragweed [8]; [23]
  Plant response rating, Ragweed: 30
Ragweed [8]; [25]
  Plant response rating, Ragweed: 20
sedge, umbrella
  Plant response rating, Sedge, Umbrella (Flood): 0
Kochia [9]; 500 g ai/ha
  Kochia plant response rating: 90
Kochia [9]; [24]
  Plant response rating, Kochia: 0
Green foxtail [10]; [23]
  Plant response rating, Foxtail, Green: 30
Green foxtail [10]; [25]
  Plant response rating, Foxtail, Green: 10
rice
  Plant response rating, Rice (Flood): 0
Blackgrass [11]; 500 g ai/ha
  Blackgrass plant response rating: 20
Blackgrass [11]; [24]
  Plant response rating, Blackgrass: 0
Kochia [12]; [23]
  Plant response rating, Kochia: 80
Kochia [12]; [25]
  Plant response rating, Kochia: 50
pigweed, palmer [13]; [23]
  Plant response rating, Pigweed, Palmer: 70
pigweed, palmer [13]; [25]
  Plant response rating, Pigweed, Palmer: 40
Barnyardgrass [14]; [23]
  Plant response rating, Barnyardgrass: 20
Barnyardgrass [14]; [25]
  Plant response rating, Barnyardgrass: 10
ryegrass, Italian [15]; [23]
  Plant response rating, Ryegrass, Italian: 80
ryegrass, Italian [15]; [25]
  Plant response rating, Ryegrass, Italian: 30
Blackgrass [16]; [23]
  Plant response rating, Blackgrass: 50
Blackgrass [16]; [25]
  Plant response rating, Blackgrass: 0
Ragweed [17]; 500 g ai/ha
  Ragweed plant response rating: 0
Ragweed [17]; [24]
  Plant response rating, Ragweed: 0
Wheat [18]; 500 g ai/ha
  Wheat plant response rating: 0
Wheat [18]; [24]
  Plant response rating, Wheat: 0
Wheat [19]; [23]
  Plant response rating, Wheat: 20
Wheat [19]; [25]
  Plant response rating, Wheat: 10
galium; [23]
  Plant response rating, Galium: 100
galium; [25]
  Plant response rating, Galium: 90
horseweed; [23]
  Plant response rating, Horseweed: 40
horseweed; [25]
  Plant response rating, Horseweed: 30
Soybean [20]; [23]
  Plant response rating, Soybean: 100
Soybean [20]; [25]
  Plant response rating, Soybean: 100
Barnyardgrass [21]; 500 g ai/ha
  Barnyardgrass plant response rating: 50
Barnyardgrass [21]; [24]
  Plant response rating, Barnyardgrass: 10
